According to patent US9474275B2, “Cyanoenamines and their use as fungicides” (priority 2010, dated 2016):
Where two headings read alike, the source gives them in different places. Marks after values point to notes of the source that are not given here.

What was measured:
Phytophthora infestans = type: in vivo; conditions: tomato plants, preventive spray, 500 ppm of active ingredient, evaluated 7 days after inoculation; 0% = untreated control, 100% = no disease
Plasmopara viticola = assay: Plasmopara test (grapevines) / preventive; type: in vivo; conditions: grapevine plants, preventive spray, 100 ppm of active ingredient, evaluated 6 days after inoculation; 0% = untreated control, 100% = no disease
Experimental: Solvent: 24.5 parts by weight of acetone • 24.5 parts by weight of dimethylacetamide
Emulsifier: 1 part by weight of alkylaryl polyglycol ether
To produce a suitable preparation of active compound, 1 part by weight of active compound is mixed with the stated amounts of solvent and emulsifier, and the concentrate is diluted with water to the desired concentration. To test for preventive activity, young plants are sprayed with the preparation of active compound at the stated rate of application. After the spray coating has dried on, the plants are inoculated with an aqueous spore suspension of Plasmopara viticola and then remain for 1 day in an incubation cabinet at approximately 20° C. and a relative atmospheric humidity of 100%. The plant is subsequently placed for 4 days in a greenhouse at approximately 21° C. and a relative atmospheric humidity of approximately 90%. The plants are then misted and placed for 1 day in an incubation cabinet. The test is evaluated 6 days after the inoculation. 0% means an efficacy which corresponds to that of the untreated control, while an efficacy of 100% means that no disease is observed.

[1] = method [a]: LC-MS at pH 2.7, 0.1% formic acid in water / acetonitrile, linear gradient 10% to 95% acetonitrile
Experimental: Measurement of log P values was performed according EEC directive 79/831 Annex V.A8 by HPLC (High Performance Liquid Chromatography) on reversed phase columns with the following methods:
^[a] measurement of LC-MS was done at pH 2.7 with 0.1% formic acid in water and with acetonitrile (contains 0.1% formic acid) as eluent with a linear gradient from 10% acetonitrile to 95% acetonitrile.

Row | Structure (SMILES) | efficacy (Phytophthora infestans) [%] | efficacy (Plasmopara viticola) [%] | LogP (pH 2.7) | LogP (pH 7.5) | LogP [1]
1 | CC(NC(=C(C#N)C(=O)CC1CC1)c1cccnc1Cl)C1(Cl)CC1 (racemic) [Compound 27] | 93 | 95 | 3.39^[a] |  | 
2 | CCCC(=O)C(C#N)=C(NC(C)c1ncc(C)s1)c1cccnc1Cl (racemic) [Compound 107] | 95 | 100 | 3.19^[a] |  | 
3 | COCC(C)NC(=C(C#N)C(=O)CC1CC1)c1cn(C)nc1C(F)F (stereo not shown) [Compound 2] | 100 | 94 | 2.54^[a] |  | 
4 | CC(C)C(C)NC(=C(C#N)C(=O)CC1CC1)c1cn(C)nc1C(F)F (stereo not shown) [Compound 4] | 95 | 94 | 3.27^[a] |  | 
5 | CCC(=O)C(C#N)=C(NC(C)C(C)C)c1cccnc1Cl (stereo not shown) [Compound 5] | 100 | 93 | 3.11^[a] | 3.09^[b] | 
6 | CC(C)C(C)NC(=C(C#N)C(=O)C1(F)CC1)c1cccnc1Cl (stereo not shown) [Compound 10] | 95 |  |  |  | 3.29^[a]
7 | CC(C)C(C)NC(=C(C#N)C(=O)CC1CC1)c1cccnc1Cl (stereo not shown) [Compound 11] | 100 | 82 | 3.55^[a] |  | 
8 | CCCCC(=O)C(C#N)=C(NC(C)C(C)C)c1cccnc1Cl (stereo not shown) [Compound 16] | 95 |  |  |  | 4.06^[a]
9 | COCC(=O)C(C#N)=C(NC(C)C1CC1)c1cn(C)nc1C(F)F (stereo not shown) [Compound 17] | 100 |  |  |  | 2.15^[a]
10 | CCCC(=O)C(C#N)=C(NC(C)C1CC1)c1cn(C)nc1C(F)F (stereo not shown) [Compound 18] | 95 | 91 | 3.08^[a] |  | 
11 | CCCC(=O)C(C#N)=C(NC(C)C(C)C)c1cccnc1Cl (stereo not shown) [Compound 20] | 100 | 87 | 3.69^[a] |  | 
12 | CCC(=O)C(C#N)=C(NC(C)C(C)C)c1cn(C)nc1C(F)F (stereo not shown) [Compound 23] | 93 |  |  |  | 2.92^[a]
13 | CC(C)C(C)NC(=C(C#N)C(=O)c1ccsn1)c1cccnc1Cl (stereo not shown) [Compound 25] | 75 |  |  |  | 2.98^[a]
14 | CCCC(=O)C(C#N)=C(NC(C)c1nccs1)c1cccnc1Cl (stereo not shown) [Compound 26] | 100 |  |  |  | 2.61^[a]
15 | CC(C)C(C)NC(=C(C#N)C(=O)C1CCOC1)c1cccnc1Cl (stereo not shown) [Compound 28] |  |  | 2.70^[a] |  | 
16 | CCCC(=O)C(C#N)=C(NC(C)COC)c1cn(C)nc1C(F)F (stereo not shown) [Compound 30] | 100 | 94 | 2.54^[a] |  | 
17 | CCCC(=O)C(C#N)=C(NC(C)C1(Cl)CC1)c1cccnc1Cl (stereo not shown) [Compound 33] | 90 | 93 | 3.44^[a] |  | 
18 | CC(C)C(C)NC(=C(C#N)C(=O)C1CCC1)c1cn(C)nc1C(F)F (stereo not shown) [Compound 34] | 90 |  |  |  | 3.46^[a]
19 | COCC(=O)C(C#N)=C(NC(C)C1(Cl)CC1)c1cccnc1Cl (stereo not shown) [Compound 36] | 70 |  |  |  | 2.44^[a]
20 | CC(C)CC(=O)C(C#N)=C(NC(C)C(C)C)c1cccnc1Cl (stereo not shown) [Compound 40] | 75 |  |  |  | 3.90^[a]
21 | CC(C)C(C)NC(=C(C#N)C(=O)C1CCC1)c1cccnc1Cl (stereo not shown) [Compound 44] | 85 |  |  |  | 3.80^[a]
22 | CCCCC(=O)C(C#N)=C(NC(C)C1(Cl)CC1)c1cccnc1Cl (stereo not shown) [Compound 47] | 75 |  |  |  | 2.33^[a]
23 | CCCC(=O)C(C#N)=C(NC(C)C(C)C)c1cn(C)nc1C(F)F (stereo not shown) [Compound 51] | 95 | 100 | 3.29^[a] |  | 
24 | CC(C)C(C)NC(=C(C#N)C(=O)C1CC1)c1cn(C)nc1C(F)F (stereo not shown) [Compound 52] | 75 |  |  |  | 3.11^[a]
25 | COCC(=O)C(C#N)=C(NC(C)C(C)C)c1cn(C)nc1C(F)F (stereo not shown) [Compound 56] | 95 | 78 | 2.42^[a] |  | 

Row | Structure (SMILES) | efficacy (Phytophthora infestans) [%] | efficacy (Plasmopara viticola) [%] | LogP (pH 2.7) | LogP (pH 7.5) | LogP [1]
26 | CC(NC(=C(C#N)C(=O)C1CC1)c1cn(C)nc1C(F)F)C1CC1 (stereo not shown) [Compound 59] | 90 |  |  |  | 2.90^[a]
27 | COCCC(=O)C(C#N)=C(NC(C)C(C)C)c1cn(C)nc1C(F)F (stereo not shown) [Compound 62] | 75 |  |  |  | 2.64^[a]
28 | CC(NC(=C(C#N)C(=O)CC1CC1)c1cn(C)nc1C(F)F)C1CC1 (stereo not shown) [Compound 64] | 98 | 94 | 3.04^[a] |  | 
29 | CC(NC(=C(C#N)C(=O)C1CCC1)c1cn(C)nc1C(F)F)C1CC1 (stereo not shown) [Compound 70] | 80 |  |  |  | 3.25^[a]
30 | CCC1CC1NC(=C(C#N)C(=O)CC1CC1)c1cccnc1Cl (stereo not shown) [Compound 72] | 100 |  |  |  | 3.46^[a]
31 | C=CCCC(=O)C(C#N)=C(NC(C)C(C)C)c1cccnc1Cl (stereo not shown) [Compound 73] | 80 |  |  |  | 3.7^[a]
32 | CC=CC(=O)C(C#N)=C(NC(C)C(C)C)c1cccnc1Cl (stereo not shown) [Compound 75] | 90 | 88 | 3.35^[a] |  | 
33 | CCCC(=O)C(C#N)=C(NC(C)c1nccs1)c1cn(C)nc1C(F)F (stereo not shown) [Compound 80] | 95 | 94 | 2.59^[a] |  | 
34 | CC(NC(=C(C#N)C(=O)CC1CC1)c1cn(C)nc1C(F)F)c1nccs1 (stereo not shown) [Compound 81] | 95 | 92 | 2.59^[a] |  | 
35 | CCCC(=O)C(C#N)=C(NC(C)COC)c1cccnc1Cl (stereo not shown) [Compound 83] | 100 | 100 |  |  | 
36 | CCCC(=O)C(C#N)=C(NC(C)C(C)(C)C)c1cn(C)nc1C(F)F (stereo not shown) [Compound 84] | 100 | 89 | 3.55^[a] |  | 
37 | CCCC(=O)C(C#N)=C(NC(C)c1ccsn1)c1cccnc1Cl (stereo not shown) [Compound 85] | 97 | 87 |  |  | 
38 | CCCC(=O)C(C#N)=C(NC(C)COCC)c1cccnc1Cl (stereo not shown) [Compound 86] | 97 | 90 |  |  | 
39 | CCCC(=O)C(C#N)=C(NC(C)C(C)(C)C)c1cccnc1Cl (stereo not shown) [Compound 87] | 100 | 100 |  |  | 
40 | CCCC(=O)C(C#N)=C(NC(C)c1ccsn1)c1cn(C)nc1C(F)F (stereo not shown) [Compound 88] | 97 | 100 | 2.73^[a] |  | 
41 | CCCC(=O)C(C#N)=C(NC(C)C(C)C)c1ccc(Cl)nc1Cl (stereo not shown) [Compound 90] | 97 | 96 | 4.31^[a] |  | 
42 | CCCC(=O)C(C#N)=C(NC(C)COC)c1cccnc1C (stereo not shown) [Compound 91] | 100 |  |  |  | 2.14^[a]
43 | CCCC(=O)C(C#N)=C(NC(C)COC)c1ccnn1C(F)F (stereo not shown) [Compound 98] | 100 | 94 | 2.73^[a] |  | 
44 | CCCC(=O)C(C#N)=C(NC1(CC2CC2)CC1)c1cccnc1Cl [Compound 101] | 95 |  |  |  | 3.79^[a]
45 | CCCC(=O)C(C#N)=C(NC1CCC1)c1cccnc1Cl [Compound 102] | 80 |  |  |  | 3.13^[a]
46 | CCCC(=O)C(C#N)=C(NC(C)c1c(F)cccc1F)c1cccnc1Cl (stereo not shown) [Compound 106] | 75 |  |  |  | 3.46^[a]
47 | CCCC(=O)C(C#N)=C(NC(C)c1c(F)cccc1F)c1cn(C)nc1C(F)F (stereo not shown) [Compound 110] | 95 |  |  |  | 3.46^[a]
48 | CCCC(=O)C(C#N)=C(NC1(CC2CC2)CC1)c1cn(C)nc1C(F)F [Compound 119] | 93 |  |  |  | 3.44^[a]
49 | CCCC(=O)C(C#N)=C(NC1CCC1)c1cn(C)nc1C(F)F [Compound 120] | 90 |  |  |  | 2.88^[a]
